The text below walks through data of patent US20260158023A1, “APOMORPHINE FOR TREATING OR IMPROVING POST-TRAUMATIC STRESS DISORDER” (priority 2024, published 2026).

For data set [1], the system named is one-time persistent stress post-traumatic stress model. Briefly: stimulus identification fear conditioning experiment in one-time persistent stress model. Format: in vivo, mice. The following applies: for fear response to safety stimuli: one-time persistent stress model; for CS-freezing: one week after one-time persistent stress. The procedure: (§1) C57BL/6 mice were stressed by restricting movement for 2 hours (restraint stress), and one week later, two sounds were simultaneously applied: one with sound-only (safety stimuli) and the other with sound paired with electrical stimulation (fear stimuli). The next day, generalization, the freezing level to the safety stimulus (CS-), which is one of the indicators of post-traumatic stress disorder, was measured through fear responses to the two sounds (stimulus identification fear conditioning experiment).
(§2) In order to strengthen the fear response to safety stimuli, a one-time persistent stress was introduced to apply stronger stress. The one-time persistent stress consists of the existing 2-hour restraint stress, 10-minute forced swim test, and 5-minute ether anesthesia.
We observed the fear response in a stimulus identification fear conditioning experiment when apomorphine (1 ug/kg, 3 ug/kg) was administered one week after a one-time persistent stress, which is a more powerful post-traumatic stress model.
In order to compare the effect of apomorphine with that of the existing treatment, paroxetine, a stimulus identification fear conditioning experiment was conducted after stress was applied under the same conditions.

The test system is the same in data set [2]. Briefly: open field test in one-time persistent stress model. Format: in vivo, mice. The note with it: after apomorphine administration.
From the text: as §2
The level of anxiety symptoms can be determined through the time spent in the center in the open field test.

For data set [3] the test system is unchanged. Briefly: elevated plus maze test in one-time persistent stress model. Type of data set: in vivo, mice. The following applies: after apomorphine administration.
Data set [4] relates to mice lacking drd4 receptors (drd4 KO). Briefly: stimulus identification fear conditioning experiment in one-time persistent stress model, mice lacking drd4 receptors (drd4 KO). Type of data set: in vivo. The following applies: as in Example 2.3.
Data set [5] concerns restraint stress post-traumatic stress model (C57BL/6 mice). Briefly: stimulus identification fear conditioning experiment in restraint stress model of post-traumatic stress disorder. Format: in vivo. The following applies: administered 30 minutes before the fear test. How it is done:
as §1
To confirm the effect of apomorphine on the post-traumatic stress model according to concentration, apomorphine of different concentrations was administered 30 minutes before the fear test.

For another data set, the system named is normal mice (drd4 WT). Briefly: stimulus identification fear conditioning experiment in one-time persistent stress model, normal mice (drd4 WT). Format: in vivo. The note with it: as in Example 2.3.

Regarding `Fc1ccc([C@@H]2CCNC[C@H]2COc2ccc3c(c2)OCO3)cc1` [paroxetine], the “fear response to safety stimuli” value is on record as “no significant difference” in data set [1] (5 ug/kg); “reduced” in data set [1] (all concentrations: 150 ug/kg, 300 ug/kg and 500 ug/kg).

Consider `CN1CCc2cccc3c2[C@H]1Cc1ccc(O)c(O)c1-3` [apomorphine, Apomorphine], for which, in data set [2], the “mean distance in the open field test (overall walking function)” value was “no difference”. In addition, the “time spent in the center in the open field test” value in data set [2] is “significantly increased”. Also, the CS-freezing result is “decreased” in data set [1] (1 ug/kg) and “did not change” in data set [1] (3 ug/kg). Moreover, in data set [3], the “time spent in the open arm in the elevated plus maze test” value was “significantly increased”. For the same compound, in data set [4], the “fear response between apomorphine administration and vehicle administration” value was “no difference”. The “CS-freezing (freezing level to the safety stimulus)” value in data set [5] (1 ug/kg) is “decreased”; in data set [5] (3 ug/kg) it was “did not change”. In the data set with normal mice (drd4 WT), the “fear response compared to vehicle administration” value was “decreased”.
